Results taken from patent publication US9169279B2, “Crystallization method and bioavailability” (THAR PHARMACEUTICALS, INC., priority 2009, dated 2015).

Legend:
[1] = room temperature
[2] = Dog PK study: zoledronic acid in serum after IV or oral capsule dosing, enteric or non-enteric coated, with or without excess coformer (LC/MS/MS); assay type: in vivo, Beagle dogs; details: beagle, po, 56 mg, Leg 7, 56.0 mg, enteric coated capsule, PO, read-out: Average serum concentration of 5 dogs
Text: This can be attributed to the fact that both animals have historically been used in the safety evaluation and PK screening studies and are recommended by appropriate regulatory agencies. […] Additional tests included ID administration in rats and administration of enteric coated capsules in dogs.
USA. Some animals have surgical catheters (jugular vein and intraduodenum) were implanted to the animals prior to the studies. Beagle dogs from Marshall Farms, N.Y., USA, weighing from (9-12 kg) were used in the studies presented herein. Surgical catheters (jugular vein) were implanted prior to the studies.
The dose volume of each dog was adjusted based upon the average weight of the dog. • ii. […]
Blood samples were placed without the use of an anticoagulant and allowed to sit at room temperature for approximately 30 minutes. Samples were then centrifuged at a temperature of 4° C., at a speed of 13,000 rpm, for 5 minutes. Serum was collected and split into two aliquots and stored frozen (−80° C.) until analysis.
In this study, capsules of particulate materials (zoledronic:DL-lysine:water complex and excess pure DL-lysine).

With `NCCCCC(N)C(=O)O.O.O.O=P(O)(O)C(O)(Cn1ccnc1)P(=O)(O)O` [ZA: DL-Lysine dihydrate] the “Aqueous solubility, Conc. mg/mL” value [1] was 6.85 mg/mL.
In the case of `NCCCCC(N)C(=O)O.O.O=P(O)(O)C(O)(Cn1ccnc1)P(=O)(O)O` [ZA: DL-Lysine monohydrate], the “Aqueous solubility, Conc. mg/mL” value [1] is reported as 13.9 mg/mL.
In the case of `NCCCC[C@H](N)C(=O)O.O.O.O=P(O)(O)C(O)(Cn1ccnc1)P(=O)(O)O` [ZA: L-Lysine dihydrate], the “Aqueous solubility, Conc. mg/mL” value [1] is reported as 8.22 mg/mL.
In the case of `O=P(O)(O)C(O)(Cn1ccnc1)P(=O)(O)O` [Zoledronic acid monohydrate], the concentration at 0 h ([2]; 0 h) is reported as 0 ng/mL, the concentration at 10 min ([2]; 10 min) is reported as 0 ng/mL and the concentration at 0.25 h ([2]; 0.25 h) is reported as 0 ng/mL. It also gave a concentration at 0.5 h ([2]; 0.5 h) of 0 ng/mL, a concentration at 0.75 h ([2]; 0.75 h) of 0 ng/mL and a concentration at 1 h ([2]; 1 h) of 9.84 ng/mL. For the same compound, the concentration at 1.5 h ([2]; 1.5 h) was 86.1 ng/mL, the concentration at 2 h ([2]; 2 h) was 109 ng/mL and the concentration at 4 h ([2]; 4 h) was 108 ng/mL. It also gave a concentration at 6 h ([2]; 6 h) of 14.2 ng/mL, a concentration at 8 h ([2]; 8 h) of 4.57 ng/mL and a concentration at 24 h ([2]; 24 h) of 0.5 ng/mL.
In the case of `O.O=P(O)(O)C(O)(Cn1ccnc1)P(=O)(O)O` [ZA monohydrate], the “Aqueous solubility, Conc. mg/mL” value [1] is reported as 1.57 mg/mL.
